Here are results for two molecules from patent US11041212B2, “ABCA1 downregulation in prostate cancer” (THE CLEVELAND CLINIC FOUNDATION, priority 2013, dated 2021).

Common to all, as to format: cell-based, human
Test [1] concerns ABCA1 transcription. The test is described as follows: ABCA1 mRNA expression by realtime RT-PCR in LNCaP cells. Conditions: 10 μM T0901317 24 hours, 5 μM 5-aza-2′-deoxycytidine 7 days, or combination, vs mock treated. On the procedure:
PrEC (Lonza, Walkersville, Md.) was cultured in PrEGM according to the manufacturer's instructions. LNCaP and DU 145 (ATCC, Manassas, Va.) were cultured in RPMI 1640 supplemented with 10% FBS. All three cell lines were obtained directly from the cell banks, and the identities of the cell lines were verified per the cell banks' protocols. […] Louis, Mo.) for 24 hours or 5 μM 5-aza-2′-deoxycytidine (Sigma, St. Louis, Mo.) for 7 days, or a combination of the two compounds. ABCA1 promoter (−1132 to +112 relative to the transcription start site) was amplified by PCR and subcloned into the pGL4.20 (Promega, Madison, Wis.). Methylated ABCA1 promoter was in vitro DNA methylated using SssI (NEB, Ipswich, Mass.) and ligated into pGL4.20 prior to transfection. The reporter construct was co-transfected with pGL 4.74 vector into DU 145 cells using Nucleofection (Lonza, Walkersville, Md.). Reporter luciferase activity was measured and normalized to control Renilla luciferase activity for each sample. The mean±SEM from triplicate experiments for each experimental group was plotted for comparisons. […] Expression of ABCA1 and GAPDH mRNA was measured by realtime RT-PCR as previously described (Yan et al.). The relative fold change in expression was calculated using the 2^−ΔΔCT method by normalizing to GAPDH mRNA expression in each sample and compared to LNCaP mock treated cells. […]

Test [2] deals with ABCA1 promoter. The test is described as follows: Methylation-specific PCR (MSP) of the ABCA1 promoter in LNCaP cells. As to conditions: 5 μM for 7 days.
Method: Bisulfite sequencing and methylation-specific PCR (MSP) of the ABCA1 promoter was performed as previously described (Yan et al., PLoS ONE. 2011; 6(6):e20628 (2011). See Table 1 for a list of the primers used.
For test [3], the system named is LNCaP cells. The test is described as follows: Total cellular cholesterol content in LNCaP cells. As to conditions: single agent. How it is done: (§1) PrEC (Lonza, Walkersville, Md.) was cultured in PrEGM according to the manufacturer's instructions. LNCaP and DU 145 (ATCC, Manassas, Va.) were cultured in RPMI 1640 supplemented with 10% FBS. All three cell lines were obtained directly from the cell banks, and the identities of the cell lines were verified per the cell banks' protocols. Cells were treated with 10 μM T0901317 (Sigma, St. Louis, Mo.) for 24 hours or 5 μM 5-aza-2′-deoxycytidine (Sigma, St. Louis, Mo.) for 7 days, or a combination of the two compounds. ABCA1 promoter (−1132 to +112 relative to the transcription start site) was amplified by PCR and subcloned into the pGL4.20 (Promega, Madison, Wis.). Methylated ABCA1 promoter was in vitro DNA methylated using SssI (NEB, Ipswich, Mass.) and ligated into pGL4.20 prior to transfection. […] Reporter luciferase activity was measured and normalized to control Renilla luciferase activity for each sample. […] Biochemical quantification of intracellular cholesterol was performed as previously described. […] At the end of this chase period, the radioactivity in the medium and cells was determined by liquid scintillation counting, and the percent efflux was calculated as 100×(medium dpm)/(medium dpm+cell dpm). Percent efflux to acceptors was calculated as (percent efflux to acceptor)-(percent efflux to no acceptor). […]

The subject of test [4] is LNCaP cells. The test is described as follows: Cellular [3H]-cholesterol efflux to acceptors in LNCaP cells. As to conditions: for cholesterol efflux to APOA1: acceptor 10 μg/mL APOA1, 4 hours chase; for cholesterol efflux to HDL: acceptor 100 μg/mL HDL, 4 hours chase. On the procedure:
PrEC (Lonza, Walkersville, Md.) was cultured in PrEGM according to the manufacturer's instructions. LNCaP and DU 145 (ATCC, Manassas, Va.) were cultured in RPMI 1640 supplemented with 10% FBS. All three cell lines were obtained directly from the cell banks, and the identities of the cell lines were verified per the cell banks' protocols. Cells were treated with 10 μM T0901317 (Sigma, St. Louis, Mo.) for 24 hours or 5 μM 5-aza-2′-deoxycytidine (Sigma, St. Louis, Mo.) for 7 days, or a combination of the two compounds. ABCA1 promoter (−1132 to +112 relative to the transcription start site) was amplified by PCR and subcloned into the pGL4.20 (Promega, Madison, Wis.). Methylated ABCA1 promoter was in vitro DNA methylated using SssI (NEB, Ipswich, Mass.) and ligated into pGL4.20 prior to transfection. The reporter construct was co-transfected with pGL 4.74 vector into DU 145 cells using Nucleofection (Lonza, Walkersville, Md.). Reporter luciferase activity was measured and normalized to control Renilla luciferase activity for each sample. The mean±SEM from triplicate experiments for each experimental group was plotted for comparisons. The different groups were compared using one way ANOVA with Bonferroni's multiple comparison test. For filipin staining, LNCaP and DU 145 cells were grown on glass coverslips, fixed in 3% paraformaldehyde, and stained with 50 μg/mL filipin (Sigma, St. Louis, Mo.). Images were acquired using QCapturePro software (Qlmaging, Surrey, Canada) at the designated magnifications and fixed aperture and exposure time for both cell lines. Biochemical quantification of intracellular cholesterol was performed as previously described. Robinet et al., J Lipid Res. 51(11):3364-9 (2010). The different groups were compared using one way ANOVA with Bonferroni correction. For analysis of cholesterol efflux, cells were labeled with 0.5 μCi/mL [^3H]-cholesterol in RPMI containing 1% FBS for 16 hours at 37° C. After labeling, cells were chased for 4 hours at 37° C. in RPMI with or without acceptors (10 μg/mL APOA1 or 100 μg/mL HDL). At the end of this chase period, the radioactivity in the medium and cells was determined by liquid scintillation counting, and the percent efflux was calculated as 100×(medium dpm)/(medium dpm+cell dpm). Percent efflux to acceptors was calculated as (percent efflux to acceptor)-(percent efflux to no acceptor). LNCaP treatment groups were compared to the mock treated sample using one way ANOVA with Dunnett's correction. Unpaired t test with Welch's correction was used to compare the T0901317-treated with the mock treated DU 145 cells.

Test [5] relates to ABCA1 promoter. The test is described as follows: ABCA1 promoter/luciferase reporter assay in DU 145 cells. Conditions: 10 μM, 24 hours. How it is done: PrEC (Lonza, Walkersville, Md.) was cultured in PrEGM according to the manufacturer's instructions. LNCaP and DU 145 (ATCC, Manassas, Va.) were cultured in RPMI 1640 supplemented with 10% FBS. All three cell lines were obtained directly from the cell banks, and the identities of the cell lines were verified per the cell banks' protocols. Cells were treated with 10 μM T0901317 (Sigma, St. Louis, Mo.) for 24 hours or 5 μM 5-aza-2′-deoxycytidine (Sigma, St. Louis, Mo.) for 7 days, or a combination of the two compounds. ABCA1 promoter (−1132 to +112 relative to the transcription start site) was amplified by PCR and subcloned into the pGL4.20 (Promega, Madison, Wis.). Methylated ABCA1 promoter was in vitro DNA methylated using SssI (NEB, Ipswich, Mass.) and ligated into pGL4.20 prior to transfection. The reporter construct was co-transfected with pGL 4.74 vector into DU 145 cells using Nucleofection (Lonza, Walkersville, Md.). Reporter luciferase activity was measured and normalized to control Renilla luciferase activity for each sample. The mean±SEM from triplicate experiments for each experimental group was plotted for comparisons. The different groups were compared using one way ANOVA with Bonferroni's multiple comparison test.
(A reporter such as luciferase makes a cellular process visible.)

Test [6] has as its system DU 145 cells. The test is described as follows: Total cellular cholesterol content in DU 145 cells. As to conditions: 10 μM T0901317. How it is done:
as §1

Test [7] has as its system DU 145 cells. Kind of test: Cellular [3H]-cholesterol efflux to acceptors in DU 145 cells. How it is done: as §1

For the molecule `Nc1ncn([C@H]2C[C@H](O)[C@@H](CO)O2)c(=O)n1` [5-aza-2′-deoxycytidine], the “ABCA1 transcription (mRNA expression)” value in test [1] is given as “did not strongly induce ABCA1 transcription”. Besides, the “demethylation of ABCA1 promoter” value in test [2] is “confirmed demethylation of ABCA1 promoter”. Further, in test [3], the “intracellular cholesterol (change vs untreated)” value is “did not decrease significantly”. In test [4], the “cholesterol efflux to APOA1” value is listed as “did not result in robust increases in cholesterol efflux” and the “cholesterol efflux to HDL” value is recorded as “same overall trend”.
On to `O=S(=O)(c1ccccc1)N(CC(F)(F)F)c1ccc(C(O)(C(F)(F)F)C(F)(F)F)cc1` [T0901317], for which the “ABCA1 transcription (mRNA expression)” value in test [1] is “only modestly induced above baseline”. For the same molecule, in test [5] (SssI methylated promoter), the “luciferase reporter activity from methylated ABCA1 promoter” value is “not induced”. Besides, in test [5] (unmethylated promoter), the “luciferase reporter expression from unmethylated ABCA1 promoter” value is “significant induction of reporter expression”. Moreover, the “intracellular cholesterol (change vs untreated)” value in test [3] is “did not decrease significantly”. For the same molecule, the “intracellular cholesterol (change vs mock)” value in test [6] is reported as “decreased intracellular cholesterol”. For the same molecule, the “cholesterol efflux to APOA1” value is “did not result in robust increases in cholesterol efflux” in test [4] and “significant increase in cholesterol efflux to APOA1” in test [7] (acceptor 10 μg/mL APOA1, 10 μM T0901317). The “cholesterol efflux to HDL” value in test [4] is given as “same overall trend”; in test [7] (acceptor 100 μg/mL HDL, 10 μM T0901317) it was “small, but statistically significant increase in cholesterol efflux to HDL”.
